Experimental data reported in US8563503B2, “Antibiotic, its nucleotide sequence, methods of construction and uses thereof” (Protein Design Lab. Ltd., priority 2011, dated 2013).

Columns and labels:
[1] = test system: ATCC 25923 penicillin-sensitive Staphylococcus aureus; test: Bacteria growth curve (A595 nm cloudiness), penicillin-sensitive Staphylococcus aureus; assay type: cell-based; details: drug 100 ng/ml, 37° C., A595 nm per hour
Protocol: The bacterium was United States Reference Culture ATCC 25923 penicillin-sensitive Staphylococcus aureus. 2 microliter of bacteria solution (10^5 CFU/ml) was added into 10 ml culture solution containing 1% tryptone, 1% NaCl, 0.5% yeast extract, 0.5% glucose and 0.1% K2HPO4, totally prepared six groups. The first group as control was added 0.3 M NaCl+50 mM boric acid buffer fluid (i.e. blank preservative fluid for novel antibiotic, wild-type colicin Ia and protein produced by BL-21 engineering bacteria without plasmid, by the same volumes of antibiosis polypeptide liquid in the experimental group, the second group was added penicillin G sodium by 100 ng/ml, the third group was added wild-type colicin Ia by 100 ng/ml, the fourth group was added protein produced by BL-21 engineering bacteria without plasmid by 100 ng/ml, the fifth group was added recombinant protein that C-terminus of colicin Ia is fused other eight peptides by 100 ng/ml, and the sixth group was added the novel antibiotic PMC-SA1 by 100 ng/ml.
The solutions of the six groups were respectively put into 100 ml conical flask, 200 rpm, grew at 37° C. 100 μl was sampled per hour, and added onto 96 hole ELISA Plate and measured bacterium growth cloudiness by spectrophotometer (A595 nm) color comparison. The bacteria-growth curve was drawn up to compare the bacteriostasis efficacy of novel antibiosis.

[2] = test system: Baumanii; test: MIC by Agar Doubling Dilution Method, clinical isolates; assay type: cell-based
Protocol: (§1) (3) Culture Solution • MH Broth Culture Solution: 25 g was added into […] distilled water, heat to dissolve, subpackaged, autoclaved at 116° C. for 20 minutes, and MH Solid Culture Medium, 36 g was added into 1000 ml distilled water, autoclaved at 116° C. for 20 minutes, used for drug sensitive test of Gram-positive and negative aerobic bacteria. • Blood culture solution for Enterococcus faecalis, which was prepared by adding defibration rabbit blood into the MH culture solution by 5-10% and cultured at 37° C. in 5% CO2 for 24 hours. 2. Experimental Methods (1) The Measurement of Minimum Inhibitory Concentration (MIC) • The Minimum Inhibitory Concentration (MIC) of PMC-SA1 was measured by Agar Doubling Dilution Method. The bacterium was inoculated on the surface of agar plate containing different concentration of drugs by multipoint inoculate instrument (Deneley A400). The bacterial content per point was 10^5 CFU/ml. After incubated at 37° C. for 18-24 hours, the result can be observed. The least concentration of drugs in plate culture solution without bacterium growing was Minimum Inhibitory Concentration (MIC) of the drug to the said bacteria. 3. Results

[3] = test system: E. coli; test: as above; assay type: cell-based; details: Escherichia coli, E. coli clinical strains
Protocol: as §1

[4] = test system: Staphylococcus aureus (MRSA); test: as above; assay type: cell-based; details: Staphylococcus aureus, MRSA
Protocol: as §1

[5] = test system: Staphylococcus aureus (MSSA); test: as above; assay type: cell-based; details: Staphylococcus aureus, MSSA
Protocol: as §1

[6] = test system: Staphylococcus epidermidis (MRSE); test: as above; assay type: cell-based; details: Staphylococcus epidermidis, MRSE
Protocol: as §1

[7] = test system: Staphylococcus epidermidis (MSSE strain); test: as above; assay type: cell-based
Protocol: as §1

[8] = test system: Enterococcus; test: as above; assay type: cell-based, Enterococcus faecalis; details: Enterococcus
Protocol: as §1

[9] = test system: Enterococcus ATCC 700802; test: MIC against the infecting strain (Table 2); assay type: cell-based, Enterococcus faecalis; details: ATCC700802
Protocol: as §1

[10] = test system: E. coli 02-1-65; test: MIC against the infecting strain (Table 2); assay type: cell-based; details: Escherichia coli, 02165
Procedure, shortened: (§2)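 MIC = lowest drug level in agar showing no bacterial growth after 18-24 h at 37° C. Spots of 10^5 CFU/ml were multipoint-inoculated onto MH agar with twofold drug dilutions; enterococci used MH plus 5-10% rabbit blood under 5% CO2.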

[11] = test system: Staphylococcus aureus ATCC 29213; test: MIC against the infecting strain (Table 2); assay type: cell-based; details: ATCC29213
Procedure, shortened: as §2

[12] = test system: Staphylococcus aureus MRSA BAA-42; test: MIC against the infecting strain (Table 2); assay type: cell-based; details: Staphylococcus aureus
Procedure, shortened: as §2

[13] = test system: E. coli 02-1-65; test: Protection test in vivo (intravenous injection) of infected mice; parameters: species or system Kungming mice; details: Escherichia coli, 02165
Procedure, shortened: (§3)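 Mice got a lethal intraperitoneal bacterial challenge, then one intravenous dose of drug in sterile water at 10, 5 or 2.5 mg/kg. Survival was checked every 24 h for 7–14 days, with death counted as the positive result.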

[14] = test system: Enterococcus ATCC 700802; test: as above; parameters: species or system Kungming mice; details: Enterococcus, ATCC700802
Procedure, shortened: as §3

[15] = test system: Staphylococcus aureus ATCC 29213; test: as above; parameters: species or system Kungming mice; details: Staphylococcus aureus, ATCC29213
Procedure, shortened: as §3

[16] = test system: Staphylococcus aureus MRSA BAA-42; test: as above; parameters: species or system Kungming mice; details: Staphylococcus aureus
Procedure, shortened: as §3

Q: Which “growth of penicillin-sensitive Staphylococcus aureus (bacteria-growth curve)” value [1] does the source give for CC1(C)S[C@@H]2[C@H](NC(=O)Cc3ccccc3)C(=O)N2[C@H]1C(=O)O [Penicillin, Benzylpenicillin Sodium] here?
A: Its value is “restrained”.

Q: What about the MIC50 [2] of the same compound?
A: The MIC50 was > 128 µg/mL.

Q: And the MIC90 [2]?
A: Its MIC90 is > 128 µg/mL.

Q: What about the MIC ([2]; read-out: Scope of MIC) of the same compound?
A: The MIC was > 128 µg/mL.

Q: And the MIC50 ([3]; read-out: MIC50)?
A: Its MIC50 is > 128 µg/mL.

Q: And the MIC90 ([3]; read-out: MIC90)?
A: Its MIC90 is > 128 µg/mL.

Q: And the MIC ([3]; read-out: Scope of MIC)?
A: The MIC was > 128 µg/mL.

Q: What about the MIC50 [4] of the same compound?
A: Its MIC50 is 128 µg/mL.

Q: And the MIC90 [4]?
A: The MIC90 was > 128 µg/mL.

Q: What about the MIC ([4]; read-out: Scope of MIC) of the same compound?
A: The MIC was 1 to 128 µg/mL.

Q: What about the MIC50 [5] of the same compound?
A: The MIC50 was 8 µg/mL.

Q: What about the MIC90 [5] of the same compound?
A: Its MIC90 is 64 µg/mL.

Q: What about the MIC50 [6] of the same compound?
A: The MIC50 was > 128 µg/mL.

Q: What about the MIC90 [6] of the same compound?
A: Its MIC90 is > 128 µg/mL.

Q: And the “Scope of MIC” value ([7]; MSSE clinical strains)?
A: Its value is 0.125 to 128 mg/L.

Q: What about the MIC50 ([7]; Staphylococcus epidermidis) of the same compound?
A: Its MIC50 is 4 µg/mL.

Q: And the MIC90 ([7]; Staphylococcus epidermidis)?
A: Its MIC90 is 32 µg/mL.

Q: And the MIC50 [8]?
A: The MIC50 was 32 µg/mL.

Q: What about the MIC90 [8] of the same compound?
A: The MIC90 was 64 µg/mL.

Q: And the MIC [9]?
A: The MIC was 4 µg/mL.

Q: What about the MIC [10] of the same compound?
A: Its MIC is > 128 µg/mL.

Q: And the MIC [11]?
A: Its MIC is 16 µg/mL.

Q: And the MIC [12]?
A: The MIC was 8 µg/mL.

Q: What about the ED50 [13] of the same compound?
A: The ED50 was > 34.5 mg/kg.

Q: And the ED50 [14]?
A: The ED50 was 4.16 mg/kg.

Q: And the ED50 [15]?
A: Its ED50 is 10.8 mg/kg.

Q: And the ED50 [16]?
A: Its ED50 is 14.7 mg/kg.
